# Assay results published in US10808003B2, “Amphipathic molecule based on tandem malonate and use thereof” (Industry-University Cooperation Foundation Hanyang …, priority 2017, dated 2020).
# How the values were obtained:
# [1] = system: LeuT (leucine transporter); assay: LeuT stability by [3H]-Leu substrate binding, scintillation proximity assay (SPA); type: biochemical, Aquifex aeolicus; settings: for activity of LeuT after incubation, relative to DDM: CMC+0.04 wt %, after incubation at room temperature; for activity of LeuT after incubation, relative to DDM / activity of LeuT over time: FIG. 13a; for activity of LeuT over time: TMMs or DDM at CMC+0.04 wt %, incubation at room temperature
# Method: An experiment of measuring LeuT protein stability for TMGs and TMMs was performed. (a) CMC+0.04 wt % or (b) CMC+0.2 wt % of each amphipathic molecule was used, and the evaluation of the LeuT protein stability was performed by taking an advantage of a characteristic of LeuT binding to a substrate through a scintillation proximity assay (SPA) using [^3H]-Leu. […]
# Specifically, wild type LeuT (leucine transporter) derived from a thermophilic bacterium, Aquifex aeolicus, was purified by a previously-disclosed method (G. Deckert et al., Nature 1998, 392, 353-358). LeuT was expressed in E. coli C41 (DE3) transformed with pET16b encoding a C-terminus 8×His-tagged transporter (the expression plasmid was provided by Dr E. Gouaux, Vollum Institute, Portland, Oreg., USA). In summary, following isolation of a bacterial membrane and lysis with 1% (w/v) DDM, the protein was allowed to bind to a Ni^2+-NTA resin (Life Technologies, Denmark), and eluted in 20 mM Tris-HCl (pH 8.0), 1 mM NaCl, 199 mM KCl, 0.05% (w/v) DDM and 300 mM imidazole. Afterward, the purified LeuT (approximately 1.5 mg/ml) was diluted with the same buffer used above, from which DDM and imidazole were removed, and then supplemented with TMGs or DDM at the final concentration of CMC+0.04% (w/v). […] SPA was performed using a buffer containing 450 mM NaCl and each of the TMGs and TMMs at the predetermined concentration. The SPA reaction is performed in the presence of 20 nM [^3H]-Leucine and 1.25 mg/ml copper chelate (His-Tag) YSi beads (Perkin Elmer, Denmark). A total [^3H]-Leucine binding degree of each sample was measured using a MicroBeta liquid scintillation counter (Perkin Elmer).
# [2] = Critical micelle concentration by fluorescent staining with diphenylhexatriene (DPH); type: physicochemical; settings: aqueous solution
# Method: A method of measuring CMC is not particularly limited, and any method well known in the art, for example, a fluorescent staining method using diphenylhexatriene (DPH) may be used.
# (§1) Specifically, a CMC was measured using fluorescent staining and diphenylhexatriene (DPH), and the hydrodynamic radii (Rh) of micelles formed by each agent (1.0 wt %) were measured by a DLS test. The measured results were compared with those for the conventional amphipathic molecule (detergent), DDM, and thus are shown in Table 1.
# [3] = Hydrodynamic radius of micelles by dynamic light scattering (DLS); type: physicochemical; settings: for micelle size and homogeneity in words: 1.0 wt %, FIGS. 5 and 6; for Rh (nm), hydrodynamic radius of micelles: micelles formed by each agent at 1.0 wt %
# Method: A method of measuring the radius of the micelles is not particularly limited, and any method well known in the art, for example, a DLS test may be used.
# as §1
# [4] = target: T1, uric acid-xanthine/H+ symporter (UapA) (Emericella nidulans, UniProt Q07307, G411V); assay: Thermal/structural stability of UapA by CPM fluorescence assay; type: biochemical, Aspergillus nidulans; settings: for ability to conserve UapA transporter in a folded state: 125 minutes at 40° C.
# T1 construct: GFP; made in house; host or cells: Saccharomyces cerevisiae FGY217
# T1 sequence (Q07307 12-574 G411V): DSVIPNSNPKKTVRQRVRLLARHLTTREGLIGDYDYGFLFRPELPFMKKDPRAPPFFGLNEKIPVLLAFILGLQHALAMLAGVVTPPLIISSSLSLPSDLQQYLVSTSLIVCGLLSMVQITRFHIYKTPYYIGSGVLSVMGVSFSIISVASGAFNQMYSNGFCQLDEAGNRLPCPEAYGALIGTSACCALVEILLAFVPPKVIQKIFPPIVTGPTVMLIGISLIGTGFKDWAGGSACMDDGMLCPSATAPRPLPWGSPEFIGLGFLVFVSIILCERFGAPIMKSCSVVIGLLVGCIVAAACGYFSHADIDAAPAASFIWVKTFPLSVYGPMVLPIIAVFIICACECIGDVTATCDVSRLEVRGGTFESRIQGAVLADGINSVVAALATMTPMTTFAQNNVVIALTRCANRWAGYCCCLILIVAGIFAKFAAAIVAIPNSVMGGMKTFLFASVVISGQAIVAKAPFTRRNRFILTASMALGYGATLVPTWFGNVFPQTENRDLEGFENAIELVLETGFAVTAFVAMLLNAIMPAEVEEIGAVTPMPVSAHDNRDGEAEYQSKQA
# Method: An experiment of measuring structural stability of a uric acid-xanthine/H+ symporter (UapA) separated from Aspergillus nidulans by TMG was performed. The structural stability of UapA was evaluated using a sulfhydryl-specific fluorophore and N-[4-(7-diethylamino-4-methyl-3-coumarinyl)phenyl]maleimide (CPM).
# Specifically, UapAG411V1-11 (hereinafter, referred to as “UapA”) expressed as a GFP fusion protein from a Saccharomyces cerevisiae FGY217 strain, and the protein was separated using a sample buffer (20 mM Tris (pH 7.5), 150 mM NaCl, 0.03% DDM, 0.6 mM xanthine) according to a method disclosed in the article written by J. Leung et al. (Mol. Membr. Biol. 2013, 30, 32-42). The protein having a molecular weight of 100 kDa was concentrated to approximately 10 mg/mL using a cut-off filter (Millipore). The protein was diluted with a buffer containing each of the TMG-As (TMG-A11, TMG-A12, TMG-A13 and TMG-A14), TMG-Ts (TMG-T11, TMG-T12, TMG-T13 and TMG-T14), MNG-3 or DDM at a ratio of 1:150 to reach the final concentration of CMC+0.04 wt % or CMC+0.2 wt % in a Greiner 96-well plate. A CPM dye (Invitrogen) stored in DMSO (Sigma) was diluted with a staining buffer (20 mM Tris (pH 7.5), 150 mM NaCl, 0.03% DDM, 5 mM EDTA), and 3 μL of the staining buffer was added to each sample. The reaction mixture was incubated at a constant temperature for 125 minutes at 40° C. Fluorescence emission was recorded using a microplate spectrofluorometer set to each of excitation and emission wavelengths of 387 nm and 463 nm. A relative amount of folded proteins was plotted over time using GraphPad Prism.
SMILES,"activity of LeuT after incubation, relative to DDM [1]",CMC [2],CMC (wt %) [2],micelle size and homogeneity in words [3],"Rh (nm), hydrodynamic radius of micelles [3]","substrate-binding ability of LeuT ([1]; TMGs or DDM at CMC+0.04 wt %, 10 days at room temperature)","ability to conserve UapA transporter in a folded state ([4]; CMC+0.04 wt %, FIG. 9)","ability to conserve UapA transporter in a folded state ([4]; CMC+0.2 wt %, FIG. 10)","ability to maintain the UapA transporter structure, comparison with MNG-3 and DDM ([4]; concentration not given)",activity of LeuT over time [1],"overall LeuT stabilisation characteristic among TMMs ([1]; CMC+0.04 wt % and CMC+0.2 wt %, FIGS. 13a and 13b)"
CC(C)CCC[C@@H](C)C1CCC2C3CC=C4CC(OCC(CO[C@@H]5OC(CO)[C@@H](O[C@H]6OC(CO)[C@@H](O)C(O)C6O)C(O)C5O)(CO[C@@H]5OC(CO)[C@@H](O[C@H]6OC(CO)[C@@H](O)C(O)C6O)C(O)C5O)CSCC(COC5CCC6(C)C(=CCC7C6CCC6(C)C7CCC6[C@H](C)CCCC(C)C)C5)(CO[C@@H]5OC(CO)[C@@H](O[C@H]6OC(CO)[C@@H](O)C(O)C6O)C(O)C5O)CO[C@@H]5OC(CO)[C@@H](O[C@H]6OC(CO)[C@@H](O)C(O)C6O)C(O)C5O)CCC4(C)C3CCC21C (stereo partly shown) [TMM-E27],protein activity similar to DDM,~0.008 mM,~0.00018 wt %,large,4.7 ± 0.10 nm,–,–,–,–,–,–
CC(C)CCC[C@@H](C)C1CCC2C3CCC4CC(OCC(CO[C@@H]5OC(CO)[C@@H](O[C@H]6OC(CO)[C@@H](O)C(O)C6O)C(O)C5O)(CO[C@@H]5OC(CO)[C@@H](O[C@H]6OC(CO)[C@@H](O)C(O)C6O)C(O)C5O)CSCC(COC5CCC6(C)C(CCC7C6CCC6(C)C7CCC6[C@H](C)CCCC(C)C)C5)(CO[C@@H]5OC(CO)[C@@H](O[C@H]6OC(CO)[C@@H](O)C(O)C6O)C(O)C5O)CO[C@@H]5OC(CO)[C@@H](O[C@H]6OC(CO)[C@@H](O)C(O)C6O)C(O)C5O)CCC4(C)C3CCC21C (stereo partly shown) [TMM-A27],protein activity similar to DDM,~0.006 mM,~0.00014 wt %,large,4.1 ± 0.10 nm,–,–,–,–,–,–
CCCCCCCCCCCCOCC(CO[C@@H]1OC(CO)[C@@H](O)C(O)C1O)(CO[C@@H]1OC(CO)[C@@H](O)C(O)C1O)CSCC(COCCCCCCCCCCCC)(CO[C@@H]1OC(CO)[C@@H](O)C(O)C1O)CO[C@@H]1OC(CO)[C@@H](O)C(O)C1O (stereo partly shown) [TMG-T12],–,~0.015 mM,~0.0019 wt %,–,3.1 ± 0.06 nm,a better characteristic than DDM,–,–,–,–,–
CCCCCCCCCCCC(CCCC(CCCCCCCCCCC)(CO[C@@H]1OC(CO)[C@@H](O)C(O)C1O)CO[C@@H]1OC(CO)[C@@H](O)C(O)C1O)(CO[C@@H]1OC(CO)[C@@H](O)C(O)C1O)CO[C@@H]1OC(CO)[C@@H](O)C(O)C1O (stereo partly shown) [TMG-A11],–,~0.015 mM,~0.0017 wt %,–,3.1 ± 0.15 nm,–,the least excellent in transporter stability,"the least effective, and had lower stability than DDM",–,–,–
"CCCCCCCCCCC(CCCCCCCCCC)(CO[C@@H]1O[C@H](CO)[C@@H](O[C@H]2O[C@H](CO)[C@@H](O)[C@H](O)[C@H]2O)[C@H](O)[C@H]1O)CO[C@@H]1O[C@H](CO)[C@@H](O[C@H]2O[C@H](CO)[C@@H](O)[C@H](O)[C@H]2O)[C@H](O)[C@H]1O [MNG-3, reference compound]",–,–,–,–,–,–,–,–,a little superior to DDM,–,–
CCCCCCCCCCCCC(CCCCCCCCCCCC)COCC(CO[C@@H]1OC(CO)[C@@H](O[C@H]2OC(CO)[C@@H](O)C(O)C2O)C(O)C1O)(CO[C@@H]1OC(CO)[C@@H](O[C@H]2OC(CO)[C@@H](O)C(O)C2O)C(O)C1O)CSCC(COCC(CCCCCCCCCCCC)CCCCCCCCCCCC)(CO[C@@H]1OC(CO)[C@@H](O[C@H]2OC(CO)[C@@H](O)C(O)C2O)C(O)C1O)CO[C@@H]1OC(CO)[C@@H](O[C@H]2OC(CO)[C@@H](O)C(O)C2O)C(O)C1O (stereo partly shown) [TMM-C26],protein activity similar to DDM,~0.0015 mM,~0.00034 wt %,–,4.3 ± 0.07 nm,–,–,–,–,–,–
CCCCCCCCCCC(CCCCCCCCCC)COCC(CO[C@@H]1OC(CO)[C@@H](O[C@H]2OC(CO)[C@@H](O)C(O)C2O)C(O)C1O)(CO[C@@H]1OC(CO)[C@@H](O[C@H]2OC(CO)[C@@H](O)C(O)C2O)C(O)C1O)CSCC(COCC(CCCCCCCCCC)CCCCCCCCCC)(CO[C@@H]1OC(CO)[C@@H](O[C@H]2OC(CO)[C@@H](O)C(O)C2O)C(O)C1O)CO[C@@H]1OC(CO)[C@@H](O[C@H]2OC(CO)[C@@H](O)C(O)C2O)C(O)C1O (stereo partly shown) [TMM-C22],two-fold higher than that of the protein dissolved in DDM,~0.002 mM,~0.00044 wt %,–,3.6 ± 0.09 nm,–,–,–,–,slightly increased over time,–
CCCCCCCCCCCC(CCCCCCCCCCC)COCC(CO[C@@H]1OC(CO)[C@@H](O[C@H]2OC(CO)[C@@H](O)C(O)C2O)C(O)C1O)(CO[C@@H]1OC(CO)[C@@H](O[C@H]2OC(CO)[C@@H](O)C(O)C2O)C(O)C1O)CSCC(COCC(CCCCCCCCCCC)CCCCCCCCCCC)(CO[C@@H]1OC(CO)[C@@H](O[C@H]2OC(CO)[C@@H](O)C(O)C2O)C(O)C1O)CO[C@@H]1OC(CO)[C@@H](O[C@H]2OC(CO)[C@@H](O)C(O)C2O)C(O)C1O (stereo partly shown) [TMM-C24],two-fold higher than that of the protein dissolved in DDM,~0.0015 mM,~0.00034 wt %,–,3.9 ± 0.08 nm,–,–,–,–,slightly increased over time,the most excellent characteristic and was superior to DDM
CC1CCC2(OC1)OC1CC3C4CC=C5CC(OCC(CO[C@@H]6OC(CO)[C@@H](O[C@H]7OC(CO)[C@@H](O)C(O)C7O)C(O)C6O)(CO[C@@H]6OC(CO)[C@@H](O[C@H]7OC(CO)[C@@H](O)C(O)C7O)C(O)C6O)CSCC(COC6CCC7(C)C(=CCC8C7CCC7(C)C8CC8OC9(CCC(C)CO9)C(C)C87)C6)(CO[C@@H]6OC(CO)[C@@H](O[C@H]7OC(CO)[C@@H](O)C(O)C7O)C(O)C6O)CO[C@@H]6OC(CO)[C@@H](O[C@H]7OC(CO)[C@@H](O)C(O)C7O)C(O)C6O)CCC5(C)C4CCC3(C)C1C2C (stereo partly shown) [TMM-D27],protein activity similar to DDM,~0.010 mM,~0.0024 wt %,relatively small micelles,3.1 ± 0.07 nm,–,–,–,–,–,–
